Assay results from ChEMBL document CHEMBL3045033, “Synthesis of new potential anticancer agents based on 4-thiazolidinone and oleanane scaffolds” (Med Chem Res, 2012).
Where “and” joins values, the source holds several entries; their conditions need not be identical. Identical values can stand only once.

Columns and labels:
Assay type in all cases: functional
SNB-19 [1] = test: Cytotoxicity against Homo sapiens (human) SNB19 cells at 10^-4 to 10^-8 M after 48 hr by SRB assay; conditions: SNB-19, 48 h, read-out: pTGI (converted)
COLO 205 [2] = test: Cytotoxicity against Homo sapiens (human) COLO205 cells at 10^-4 to 10^-8 M after 48 hr by SRB assay; conditions: COLO 205, 48 h, read-out: pTGI (converted)
NCI-H460 = test: Cytotoxicity against Homo sapiens (human) NCI-H460 cells at 10^-4 to 10^-8 M after 48 hr by SRB assay; conditions: NCI-H460, 48 h, read-out: pTGI (converted)
NCI-H322M = test: Cytotoxicity against Homo sapiens (human) NCI-H322M cells at 10^-4 to 10^-8 M after 48 hr by SRB assay; conditions: read-out: pTGI (converted)
NCI-H23 = test: Cytotoxicity against Homo sapiens (human) NCI-H23 cells at 10^-4 to 10^-8 M after 48 hr by SRB assay; conditions: NCI-H23, 48 h, read-out: pTGI (converted)
NCI-H226 [3] = test: Cytotoxicity against Homo sapiens (human) NCI-H226 cells at 10^-4 to 10^-8 M after 48 hr by SRB assay; conditions: NCI-H226, 48 h, read-out: pTGI (converted)
HOP-62 = test: Cytotoxicity against Homo sapiens (human) HOP62 cells at 10^-4 to 10^-8 M after 48 hr by SRB assay; conditions: HOP-62, 48 h, read-out: pTGI (converted)
A549 = test: Cytotoxicity against Homo sapiens (human) A549 cells at 10^-4 to 10^-8 M after 48 hr by SRB assay; conditions: A549, 48 h, read-out: pTGI (converted)
SR [4] = test: Cytotoxicity against Homo sapiens (human) SR cells at 10^-4 to 10^-8 M after 48 hr by SRB assay; conditions: read-out: pTGI (converted)
MOLT-4 = test: Cytotoxicity against Homo sapiens (human) MOLT4 cells at 10^-4 to 10^-8 M after 48 hr by SRB assay; conditions: MOLT-4, 48 h, read-out: pTGI (converted)
CCRF-CEM [5] = test: Cytotoxicity against Homo sapiens (human) CCRF-CEM cells at 10^-4 to 10^-8 M after 48 hr by SRB assay; conditions: read-out: pTGI (converted)
ACHN = test: Cytotoxicity against Homo sapiens (human) ACHN cells after 48 hr by SRB assay
A498 = test: Cytotoxicity against Homo sapiens (human) A498 cells after 48 hr by SRB assay
SK-MEL-5 [6] = test: Cytotoxicity against Homo sapiens (human) SK-MEL-5 cells after 48 hr by SRB assay
SR [7] = test: Cytotoxicity against Homo sapiens (human) SR cells assessed as cellular growth at 10^-5 M after 48 hr by SRB assay relative to untreated control
MCF7 = test: Cytotoxicity against Homo sapiens (human) MCF7 cells at 10^-4 to 10^-8 M after 48 hr by SRB assay; conditions: MCF7, 48 h, read-out: pTGI (converted)
PC-3 = test: Cytotoxicity against Homo sapiens (human) PC3 cells at 10^-4 to 10^-8 M after 48 hr by SRB assay; conditions: PC-3, 48 h, read-out: pTGI (converted)
DU-145 = test: Cytotoxicity against Homo sapiens (human) DU145 cells at 10^-4 to 10^-8 M after 48 hr by SRB assay; conditions: DU-145, 48 h, read-out: pTGI (converted)
SN12C = test: Cytotoxicity against Homo sapiens (human) SN12C cells at 10^-4 to 10^-8 M after 48 hr by SRB assay; conditions: read-out: pTGI (converted)
UO-31 = test: Cytotoxicity against Homo sapiens (human) UO31 cells at 10^-4 to 10^-8 M after 48 hr by SRB assay; conditions: UO-31, 48 h, read-out: pTGI (converted)
CAKI-1 = test: Cytotoxicity against Homo sapiens (human) Caki1 cells at 10^-4 to 10^-8 M after 48 hr by SRB assay; conditions: CAKI-1, 48 h, read-out: pTGI (converted)
SK-OV-3 = test: Cytotoxicity against Homo sapiens (human) SKOV3 cells at 10^-4 to 10^-8 M after 48 hr by SRB assay; conditions: SK-OV-3, 48 h, read-out: pTGI (converted)
786-0 = test: Cytotoxicity against Homo sapiens (human) 786-0 cells at 10^-4 to 10^-8 M after 48 hr by SRB assay; conditions: 786-0, 48 h, read-out: pTGI (converted)
OVCAR-8 = test: Cytotoxicity against Homo sapiens (human) OVCAR8 cells at 10^-4 to 10^-8 M after 48 hr by SRB assay; conditions: OVCAR-8, 48 h, read-out: pTGI (converted)
OVCAR-4 = test: Cytotoxicity against Homo sapiens (human) OVCAR4 cells at 10^-4 to 10^-8 M after 48 hr by SRB assay; conditions: OVCAR-4, 48 h, read-out: pTGI (converted)
SK-MEL-5 [8] = test: Cytotoxicity against Homo sapiens (human) SK-MEL-5 cells at 10^-4 to 10^-8 M after 48 hr by SRB assay; conditions: SK-MEL-5, 48 h, read-out: pTGI (converted)
UACC-257 = test: Cytotoxicity against Homo sapiens (human) UACC257 cells at 10^-4 to 10^-8 M after 48 hr by SRB assay; conditions: UACC-257, 48 h, read-out: pTGI (converted)
SK-MEL-2 = test: Cytotoxicity against Homo sapiens (human) SK-MEL-2 cells at 10^-4 to 10^-8 M after 48 hr by SRB assay; conditions: SK-MEL-2, 48 h, read-out: pTGI (converted)
M14 = test: Cytotoxicity against Homo sapiens (human) M14 cells at 10^-4 to 10^-8 M after 48 hr by SRB assay; conditions: M14, 48 h, read-out: pTGI (converted)
LOX IMVI [9] = test: Cytotoxicity against Homo sapiens (human) LOXIMVI cells at 10^-4 to 10^-8 M after 48 hr by SRB assay; conditions: read-out: pTGI (converted)
LOX IMVI [10] = test: Cytotoxicity against Homo sapiens (human) LOXIMVI cells after 48 hr by SRB assay
SNB-19 [11] = test: Cytotoxicity against Homo sapiens (human) SNB19 cells after 48 hr by SRB assay
SF-539 = test: Cytotoxicity against Homo sapiens (human) SF539 cells after 48 hr by SRB assay
COLO 205 [12] = test: Cytotoxicity against Homo sapiens (human) COLO205 cells after 48 hr by SRB assay
NCI-H226 [13] = test: Cytotoxicity against Homo sapiens (human) NCI-H226 cells after 48 hr by SRB assay
CCRF-CEM [14] = test: Cytotoxicity against Homo sapiens (human) CCRF-CEM cells after 48 hr by SRB assay

Compound | TGI (SNB-19 [1]) [µM] | TGI (COLO 205 [2]) [µM] | TGI (NCI-H460) [µM] | TGI (NCI-H322M) [µM] | TGI (NCI-H23) [µM] | TGI (NCI-H226 [3]) [µM] | TGI (HOP-62) [µM] | TGI (A549) [µM] | TGI (SR [4]) [µM] | TGI (MOLT-4) [µM] | TGI (CCRF-CEM [5]) [µM] | Activity (SR [7]) [%] | TGI (MCF7) [µM] | TGI (PC-3) [µM] | TGI (DU-145) [µM] | TGI (SN12C) [µM] | TGI (UO-31) [µM] | TGI (CAKI-1) [µM] | TGI (SK-OV-3) [µM] | TGI (786-0) [µM] | also measured
COC(=O)[C@]12CCC(C)(C)C[C@H]1C1=CC[C@@H]3[C@@]4(C)CC/C(=N\O)C(C)(C)[C@@H]4CC[C@@]3(C)[C@]1(C)CC2 | 69.2 | 57.5 | 51.3 | > 100 | 38 | 66.1 | 44.7 | > 100 | 55 | > 100 | 81.3 | -41.06 | 40.7 | 44.7 | 42.7 | 42.7 | 45.7 | 47.9 | > 100 | 34.7 | GI50 (ACHN; Homo sapiens, ACHN, 48 h): 20.9 µM; GI50 (A498; Homo sapiens, A498, 48 h): 28.2 µM; GI50 (SK-MEL-5 [6]; Homo sapiens, SK-MEL-5, 48 h): 21.4 µM; TGI (OVCAR-8): > 100 µM; TGI (OVCAR-4): > 100 µM; TGI (SK-MEL-5 [8]): 63.1 µM; TGI (UACC-257): > 100 µM; TGI (SK-MEL-2): > 100 µM; TGI (M14): 57.5 µM; TGI (LOX IMVI [9]): 39.8 µM; GI50 (LOX IMVI [10]; Homo sapiens, LOX IMVI, 48 h): 19.5 µM; GI50 (SNB-19 [11]; Homo sapiens, SNB-19, 48 h): 25.7 µM; GI50 (SF-539; Homo sapiens, SF-539, 48 h): 20.9 µM; GI50 (COLO 205 [12]; Homo sapiens, COLO 205, 48 h): 22.4 µM; GI50 (NCI-H226 [13]; Homo sapiens, NCI-H226, 48 h): 27.5 µM; GI50 (CCRF-CEM [14]): 28.2 µM
CC1(C)CC[C@@]23CC[C@]4(C)[C@@](OC2=O)([C@@H]3C1)[C@@H](Br)C[C@@H]1[C@@]2(C)CC/C(=N\O)C(C)(C)[C@@H]2CC[C@]14C | > 100 | > 100 | > 100 | > 100 | > 100 | > 100 | > 100 | > 100 | 7.94 | > 100 | > 100 | -62.66 | 60.3 | > 100 | > 100 | > 100 | > 100 | > 100 | > 100 | > 100 | GI50 (ACHN; Homo sapiens, ACHN, 48 h): 53.7 µM; GI50 (A498; Homo sapiens, A498, 48 h): 49 µM; GI50 (SK-MEL-5 [6]; Homo sapiens, SK-MEL-5, 48 h): 26.3 µM; TGI (OVCAR-8): 53.7 µM; TGI (OVCAR-4): > 100 µM; TGI (SK-MEL-5 [8]): > 100 µM; TGI (UACC-257): > 100 µM; TGI (SK-MEL-2): > 100 µM; TGI (M14): > 100 µM; TGI (LOX IMVI [9]): > 100 µM; GI50 (LOX IMVI [10]; Homo sapiens, LOX IMVI, 48 h): 10 µM; GI50 (SNB-19 [11]; Homo sapiens, SNB-19, 48 h): 53.7 µM; GI50 (SF-539; Homo sapiens, SF-539, 48 h): 20 µM; GI50 (COLO 205 [12]; Homo sapiens, COLO 205, 48 h): 91.2 µM; GI50 (NCI-H226 [13]; Homo sapiens, NCI-H226, 48 h): 28.2 µM; GI50 (CCRF-CEM [14]): 17.4 µM
COC(=O)[C@]12CCC(C)(C)C[C@H]1C1=CC[C@@H]3[C@@]4(C)CC/C(=N\OC(=O)/C=C5/SC(=O)NC5=O)C(C)(C)[C@@H]4CC[C@@]3(C)[C@]1(C)CC2 | 26.3 | 5.37 | 9.55 | 32.4 | 12.3 | 30.9 | 36.3 | 17.8 | 3.89 | 7.41 | 7.76 | -22.69 | 10.7 | 14.1 | 17 | 18.6 | 2.95 | 16.2 | 34.7 | 11.5 | GI50 (ACHN): 1.74 µM and 6.61 µM; GI50 (A498): 17.8 µM and 2.57 µM; GI50 (SK-MEL-5 [6]): 43.7 µM and 5.25 µM; TGI (OVCAR-8): 15.1 µM; TGI (OVCAR-4): 6.92 µM; TGI (SK-MEL-5 [8]): 17.8 µM; TGI (UACC-257): 24.5 µM; TGI (SK-MEL-2): 17.8 µM; TGI (M14): 5.13 µM; TGI (LOX IMVI [9]): 3.09 µM; GI50 (LOX IMVI [10]): 6.61 µM and 1.48 µM; GI50 (SNB-19 [11]): 56.2 µM and 12.3 µM; GI50 (SF-539): 7.59 µM and 1.78 µM; GI50 (COLO 205 [12]): 3.47 µM; GI50 (COLO 205 [12]; Homo sapiens, COLO 205, 48 h): 2.63 µM; GI50 (NCI-H226 [13]): ≥ 100 µM and 12.3 µM; GI50 (CCRF-CEM [14]): 2.45 µM; LC50 (CCRF-CEM [14]): 37.2 µM
